This is an account of results in US20100150839A1, “Compositions and Methods for Modulating Cognitive Function” (Massachusetts Institute of Technology, priority 2005, published 2010).

“And” between values parts separate entries of the source, which are not always exact repeats. Equal values may be shown once. “Also recorded” adds a separate entry of the source. Read-outs that look alike come from different tables or passages of the source.

Assay [1] concerns cultured primary hippocampal neurons. The assay is described as follows: Translation reporter assay: EGFP-αCaMKII 3′ UTR reporter mRNA transfected into neurons. It counts as cell-based, rat.
A further assay has as its system phospho-S6 (S235/S236). Briefly: Western analysis of S6 phosphorylation. Format: cell-based, rat. As to the method:
(§1) Western analysis. Homogenates were prepared in cold RIPA buffer containing protease inhibitors and phosphatase inhibitors. Hippocampal neurons were homogenized 8 minutes after stimulation. Hippocampal slices were frozen on dry ice 10 minutes after tetanization, and the CA1 and CA3 fields were microdissected and homogenized. Western analysis was performed with rabbit polyclonal antisera against dually-phosphorylated ERK1/2, phospho-S6 (S235/S236), phospho-eIF4E (S209), and phospho-4E-BP (S65) (Cell Signaling). […] Therefore, since 4E-BP2 is the most abundantly expressed 4E-BP in the brain, it is likely that the results reflected 4E-BP2 levels and phosphorylation state. Blots were stripped and reprobed with antisera directed against total ERK1/2, S6, eIF4E, and 4E-BP (Cell Signaling). Results were quantified with ImageJ (NIH), calculated as the ratio of phosphorylated species to […], and then normalized to the untreated control condition Staining of total protein with Ponceau-S confirmed equal loading.

For another assay, the system named is phospho-eIF4E (S209). The assay is described as follows: Western analysis of eIF4E phosphorylation. Format: cell-based, rat. As for the experimental part: as §1
In assay [2] the test system is cultured hippocampal neurons. Briefly: Metabolic pulse labeling (35S-methionine incorporation) in cultured hippocampal neurons. It counts as cell-based, rat. To be noted: for Increase in translation levels: hippocampal neuronal cultures, 35S metabolic labeling.
A further assay relates to hippocampal brain slices. Briefly: Metabolic labeling of newly synthesized proteins in hippocampal brain slices. It counts as cell-based.
For the next assay, the system named is phospho-4E-BP (S65). The assay is described as follows: Western analysis of 4E-BP phosphorylation. It counts as cell-based, rat. As to the method:
as §1

In assay [3] the test system is dually-phosphorylated ERK1/2.
For a further assay, the system named is hippocampal slices. It counts as cell-based, mice.
The mark [4] stands for this setting: hippocampal cultures, Western Blot.
Where [5] appears, read: cultured hippocampal neurons (FIG. 10), agonist 10 uM or 50 uM.
The mark [6] stands for this setting: hippocampal brain slices (FIG. 9), agonist 10 uM or 50 uM.

With `NC(CCCP(=O)(O)O)C(=O)O` (centres unmarked) [AP5], the “Translation of EGFP-αCaMKII-A20 reporter mRNA” value in assay [1] (spontaneous neuronal activity, pretreatment with AP5 (100 μM) and DNQX (10 μM) together) is listed as “significantly inhibited”.

With `OCC(O)c1ccc(O)c(O)c1` (centres unmarked) [DHPG, 3,4-Dihydroxyphenylglycol], the “Increase in phosphorylation of S6” value with phospho-S6 (S235/S236) (setting [4]) amounted to 52%+/−18%. The “Increase in phosphorylation of eIF4E” value in the assay on phospho-eIF4E (S209) (setting [4]) is recorded as 33%+/−3%. For the same molecule, the “Increase in translation levels” value in assay [2] was 50%+/−20%.

With `O=[N+]([O-])c1cc2nc(O)c(O)nc2cc1[N+](=O)[O-]` [DNQX], the “Translation of EGFP-αCaMKII-A20 reporter mRNA” value in assay [1] is on record as “significantly inhibited”.

For the molecule `Oc1cc2c(cc1O)C(c1ccccc1)CNCC2` (centres unmarked) [SKF38393], the “Translation of endogenous neuronal mRNAs (metabolic labeling of newly synthesized proteins)” value (“Translation of endogenous neuronal mRNAs” for short) (in assay [2] (setting [5]); in the assay on hippocampal brain slices (setting [6])) was “stimulate translation” in each case.

As for `N#CC(=C(/N)Sc1ccccc1N)/C(C#N)=C(\N)Sc1ccccc1N` [U0126], in the assay on phospho-S6 (S235/S236), the “Effect on DHPG-induced increase in phosphorylation of S6” value is listed as “blocked” and the “Phosphorylation of S6” value was “significantly inhibited; also recorded: significantly reduced”. In the assay with phospho-eIF4E (S209), the “Effect on DHPG-induced increase in phosphorylation of eIF4E” value is recorded as “blocked” and the “Phosphorylation of eIF4E” value is listed as “significantly inhibited; also recorded: significantly reduced”. In assay [1], the “Effect of concurrent treatment on stimulated EGFP-αCaMKII-A20 mRNA translation” value is reported as “significantly attenuated the effects of stimulation”; the “Sensitivity of activity-induced reporter mRNA translation to inhibition” value is listed as “persisted after mutation of the CPEs”; the “Translation of EGFP-αCaMKII-A20 reporter mRNA, combined pretreatment” value is “no additional inhibition”. The “Translation of endogenous synaptodendritic mRNAs” value in the assay with synaptoneurosomes is recorded as “significantly reduced”. For the same molecule, in the assay on phospho-4E-BP (S65), the “Phosphorylation of 4E-BP” value is “significantly inhibited”. Besides, in [3], the “ERK phosphorylation (phospho-ERK levels)” value was “entirely abolished” and the “Phosphorylation of ERK” value is reported as “significantly reduced”. Also, in assay [2], the “Bulk translation of endogenous transcripts (35S-methionine incorporation)” value is given as “strongly inhibited”, the “Effect of pretreatment on agonist-induced increases in neuronal protein synthesis” value was “blocked”, the “Effect on DHPG-induced increase in translation rates” value is on record as “blocked” and the “Effect on dopamine-induced increase in translation” value is “blocked”. In addition, the “Effect on spaced depolarization-induced increase in translation” value in [2] is reported as “blocked”. Also, the “Effect of pretreatment on agonist-induced increases in neuronal protein synthesis” value with hippocampal brain slices was “blocked”.

As to `COc1ccc(C[C@H]2NC[C@H](O)[C@H]2OC(C)=O)cc1` [anisomycin], in the assay with hippocampal slices, the “Additional decrement in L-LTP” value is recorded as “did not produce any additional decrement in L-LTP”; the “Kinetic pattern of L-LTP inhibition” value is given as “progressive inhibition of L-LTP”; the “L-LTP magnitude at 200 minutes” value is 108±5% and 113±5%.

For the molecule `C[N+](C)(C)CCOC(N)=O` [carbachol], the “Translation of endogenous neuronal mRNAs” value (in assay [2] (setting [5]); with hippocampal brain slices (setting [6])) was “stimulate translation” each time.

On to `NCCc1ccc(O)c(O)c1` [dopamine], for which the “Increase in translation levels” value in [2] is on record as 77%+/−26%.

On to `CC(C)NCC(O)c1ccc(O)c(O)c1` (centres unmarked) [isoproteronol], for which the “Translation of endogenous neuronal mRNAs” value (in assay [2] (setting [5]); with hippocampal brain slices (setting [6])) was “stimulate translation” in each case.

Consider `CCCN1CCC[C@@H]2Cc3n[nH]cc3C[C@H]21` [quinpirole], for which the “Translation of endogenous neuronal mRNAs” value (in assay [2]; in the assay with hippocampal brain slices) was “stimulate translation” each time.

In the case of Sp-cAMPS, the “Effect on translation (in words)” value in assay [2] was “increased translation”.

For actinomycin-D, in the assay on hippocampal slices, the “Additional decrement in L-LTP” value is on record as “did not produce any additional decrement in L-LTP”; the “Kinetic pattern of L-LTP inhibition” value was “distinct, delayed pattern of inhibition”; the “L-LTP magnitude at 60 min. post-tetanization” value was 157±4% and 157±3%; the “L-LTP magnitude at 200 minutes” value is 107±4% and 122±5%. Further, the “Time after onset of tetanization during which L-LTP magnitude remained indistinguishable from untreated slices” value in the assay with hippocampal slices is recorded as “approximately 75 minutes”.

B1: BDNF: brain derived neurotrophic factor; activates trkB (protein, UniProt P23560 19-247, looked up)
Neurotrophic factor BDNF …: APMKEANIRGQGGLAYPGVRTHGTLESVNGPKAGSRGLTSLADTFEHVIEELLDEDQKVRPNEENNKDADLYTSRVMLSSQVPLEPPLLFLLEEYKNYLDAANMSMRVRRHSDPARRGELSVCDSISEWVTAADKKTAVDMSGGTVTVLEKVPVSKGQLKQYFYETKCNPMGYTKEGCRGIDKRHWNSQCRTTQSYVRALTMDSKKRIGWRFIRIDTSCVCTLTIKRGR
Consider B1, for which, in [1] (100 ng/mL BDNF for 4 hours, 40 μM bicuculline for 8 min., after U0126 preincubation and wash), the “Stimulation of EGFP-αCaMKII-A20 mRNA translation” value is reported as “significant increases”.
